In ChEMBL document CHEMBL2057157, “Butyl pocket formation in the vitamin D receptor strongly affects the agonistic or antagonistic behavior of ligands” (J Med Chem, 2012):

Molecular target: T1, Vitamin D3 receptor (Homo sapiens, UniProt P11473)
T1 sequence (P11473 whole entry): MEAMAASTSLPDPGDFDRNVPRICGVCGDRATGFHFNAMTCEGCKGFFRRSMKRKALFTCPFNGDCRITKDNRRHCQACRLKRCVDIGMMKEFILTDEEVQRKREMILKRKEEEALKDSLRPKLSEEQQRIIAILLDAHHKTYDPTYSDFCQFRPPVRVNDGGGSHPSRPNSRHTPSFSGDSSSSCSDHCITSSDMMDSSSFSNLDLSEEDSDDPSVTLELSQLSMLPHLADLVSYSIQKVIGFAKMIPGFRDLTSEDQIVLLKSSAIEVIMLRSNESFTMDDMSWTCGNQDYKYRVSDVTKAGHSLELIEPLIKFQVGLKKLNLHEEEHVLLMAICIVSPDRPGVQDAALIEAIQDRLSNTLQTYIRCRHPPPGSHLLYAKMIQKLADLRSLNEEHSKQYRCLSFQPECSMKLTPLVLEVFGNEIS
Assay: Displacement of [3H]1alpha,25-dihydroxyvitamin D3 from human recombinant GST-tagged vitamin D3 receptor LBD expressed in Escherichia coli BL21 after 16 hrs

IC50: 0.38 nM
SMILES: C=C1[C@H](O)CC(=C/C=C2\CCC[C@]3(C)[C@@H]([C@H](C)[C@@H](CC)CC(O)(CC)CC)CC[C@@H]23)C[C@H]1O
